The source made the active and inactive calls.
What was measured:
[1] = biological target: T1, Rac GTPase-activating protein 1 (Homo sapiens, UniProt Q9H0H5); experiment: MgcRacGAP GTPase-activating activity inhibitors, confirmation, biochemical, ADP Hunter fluorescence, primary and confirmatory (AID 624330); format: functional
T1 sequence (Q9H0H5 whole entry): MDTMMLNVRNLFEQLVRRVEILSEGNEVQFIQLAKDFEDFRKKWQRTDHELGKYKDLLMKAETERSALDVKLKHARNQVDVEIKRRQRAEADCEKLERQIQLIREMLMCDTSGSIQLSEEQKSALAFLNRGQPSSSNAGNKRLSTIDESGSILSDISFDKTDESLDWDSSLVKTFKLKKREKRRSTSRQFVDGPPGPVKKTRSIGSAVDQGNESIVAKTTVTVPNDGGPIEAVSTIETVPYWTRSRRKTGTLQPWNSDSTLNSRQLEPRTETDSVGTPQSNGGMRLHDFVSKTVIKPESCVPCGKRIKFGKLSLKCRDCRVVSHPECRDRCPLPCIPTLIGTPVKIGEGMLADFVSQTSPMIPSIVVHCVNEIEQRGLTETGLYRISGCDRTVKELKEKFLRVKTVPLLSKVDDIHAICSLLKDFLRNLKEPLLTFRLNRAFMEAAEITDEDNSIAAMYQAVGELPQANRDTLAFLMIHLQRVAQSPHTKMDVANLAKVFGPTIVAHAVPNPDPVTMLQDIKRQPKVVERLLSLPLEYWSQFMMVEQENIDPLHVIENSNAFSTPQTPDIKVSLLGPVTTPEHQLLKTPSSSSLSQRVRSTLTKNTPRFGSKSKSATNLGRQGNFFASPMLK

[2] = biological target: DNA dC->dU-editing enzyme APOBEC-3G (Homo sapiens, UniProt Q9HC16); experiment: Dose Response confirmation of small molecule APOBEC3G DNA Deaminase Inhibitors via a fluorescence-based single-stranded DNA deaminase assay. [Related pubchem assays (depositor defined):AID493012, AID493028]; format: functional
Chain of DNA dC->dU-editing enzyme APOBEC-3G (Q9HC16 whole entry): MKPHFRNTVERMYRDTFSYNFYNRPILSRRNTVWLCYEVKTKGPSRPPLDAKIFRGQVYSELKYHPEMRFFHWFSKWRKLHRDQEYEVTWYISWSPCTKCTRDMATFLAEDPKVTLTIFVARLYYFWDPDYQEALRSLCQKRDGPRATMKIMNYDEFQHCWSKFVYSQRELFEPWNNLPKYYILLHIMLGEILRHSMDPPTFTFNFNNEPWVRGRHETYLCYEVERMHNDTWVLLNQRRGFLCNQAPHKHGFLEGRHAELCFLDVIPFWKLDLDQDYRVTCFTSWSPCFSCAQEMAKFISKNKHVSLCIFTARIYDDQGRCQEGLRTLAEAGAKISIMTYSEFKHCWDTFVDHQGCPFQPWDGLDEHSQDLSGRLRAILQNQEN

cells [3] = format: functional, cell-based
cells [4] = format: functional, cell-based; remark: listed apart in the source
[5] = cytotoxicity in HEK-293T cells, dose response, cytotoxicity control for BCR NF-kB inhibitor project, luminescence, B-cell screen hits (AID 489021); format: functional, cell-based;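 further: HEK-293T cells carrying an NF-kB luciferase reporter; cells exposed to compound for about 14 hours before viability readout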
[6] = biological target: T2, Microphthalmia-associated transcription factor (Homo sapiens, UniProt O75030); experiment: TRPM1 promoter luciferase signal decrease, dose response, MITF inhibitor project, cell-based, SK-MEL-5, cherry-picked, set 3 (AID 493073); format: functional
T2 sequence (O75030 whole entry): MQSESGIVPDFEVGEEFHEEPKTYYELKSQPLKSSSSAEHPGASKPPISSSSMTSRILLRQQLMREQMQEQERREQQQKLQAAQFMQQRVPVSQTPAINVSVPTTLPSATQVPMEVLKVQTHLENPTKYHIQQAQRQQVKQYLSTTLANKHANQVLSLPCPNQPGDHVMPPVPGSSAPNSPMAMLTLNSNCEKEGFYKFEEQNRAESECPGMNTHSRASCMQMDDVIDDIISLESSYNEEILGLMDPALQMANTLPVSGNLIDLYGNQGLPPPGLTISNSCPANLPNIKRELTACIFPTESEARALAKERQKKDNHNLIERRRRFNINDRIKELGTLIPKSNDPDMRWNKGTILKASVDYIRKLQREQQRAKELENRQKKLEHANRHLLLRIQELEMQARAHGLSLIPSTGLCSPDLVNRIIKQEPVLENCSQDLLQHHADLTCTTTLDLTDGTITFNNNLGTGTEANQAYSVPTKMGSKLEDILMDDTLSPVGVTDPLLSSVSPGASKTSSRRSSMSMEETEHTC

Large T antigen = Large T antigen (Simian virus 40, UniProt P03070); format: functional, Betapolyomavirus macacae;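 further: Confirmatory-stage PubChem screen for compounds that inhibit SV40 T antigen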
Chain of Large T antigen (P03070 whole entry): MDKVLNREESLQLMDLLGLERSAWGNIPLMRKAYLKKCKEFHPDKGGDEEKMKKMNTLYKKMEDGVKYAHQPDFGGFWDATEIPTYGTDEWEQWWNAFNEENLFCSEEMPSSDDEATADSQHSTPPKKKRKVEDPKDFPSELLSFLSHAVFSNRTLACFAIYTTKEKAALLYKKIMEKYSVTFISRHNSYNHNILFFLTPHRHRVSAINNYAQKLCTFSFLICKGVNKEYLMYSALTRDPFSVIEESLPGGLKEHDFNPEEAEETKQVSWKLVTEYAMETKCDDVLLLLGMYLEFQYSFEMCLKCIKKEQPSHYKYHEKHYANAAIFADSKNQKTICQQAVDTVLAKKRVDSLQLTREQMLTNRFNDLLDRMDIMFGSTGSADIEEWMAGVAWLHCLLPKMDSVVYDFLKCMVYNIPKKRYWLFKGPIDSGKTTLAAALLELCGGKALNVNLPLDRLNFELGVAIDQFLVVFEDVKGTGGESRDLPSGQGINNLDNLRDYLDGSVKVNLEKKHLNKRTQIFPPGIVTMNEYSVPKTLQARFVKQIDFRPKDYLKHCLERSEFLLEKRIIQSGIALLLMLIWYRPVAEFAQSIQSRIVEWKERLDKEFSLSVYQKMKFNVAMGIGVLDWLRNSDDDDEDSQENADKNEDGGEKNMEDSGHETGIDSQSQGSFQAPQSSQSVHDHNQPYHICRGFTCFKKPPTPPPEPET

[7] = biological target: T3, Endoribonuclease toxin MazF (Escherichia coli K-12, UniProt P0AE70); experiment: fluorescent RNA oligo signal without MazF, dose response, counter-screen for MazEF activator project, biochemical, fluorescence, single-stranded RNase substrate (AID 588502); format: functional
T3 sequence (P0AE70 whole entry): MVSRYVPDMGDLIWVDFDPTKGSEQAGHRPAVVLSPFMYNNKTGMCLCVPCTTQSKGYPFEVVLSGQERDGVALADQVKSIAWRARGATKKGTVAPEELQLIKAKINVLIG

[8] = biological target: T3, Endoribonuclease toxin MazF; experiment: MazF toxin RNase activators, dose response, biochemical, fluorescence, single-stranded RNA substrate, uHTS hits (AID 588481); format: functional
[9] = biological target: T4, Zinc finger protein mex-5 (Caenorhabditis elegans, UniProt Q9XUB2); experiment: MEX-5/TCR-2 RNA interaction inhibitors, dose response, biochemical, C. elegans, fluorescence polarization (AID 1960)
T4 sequence (Q9XUB2 whole entry): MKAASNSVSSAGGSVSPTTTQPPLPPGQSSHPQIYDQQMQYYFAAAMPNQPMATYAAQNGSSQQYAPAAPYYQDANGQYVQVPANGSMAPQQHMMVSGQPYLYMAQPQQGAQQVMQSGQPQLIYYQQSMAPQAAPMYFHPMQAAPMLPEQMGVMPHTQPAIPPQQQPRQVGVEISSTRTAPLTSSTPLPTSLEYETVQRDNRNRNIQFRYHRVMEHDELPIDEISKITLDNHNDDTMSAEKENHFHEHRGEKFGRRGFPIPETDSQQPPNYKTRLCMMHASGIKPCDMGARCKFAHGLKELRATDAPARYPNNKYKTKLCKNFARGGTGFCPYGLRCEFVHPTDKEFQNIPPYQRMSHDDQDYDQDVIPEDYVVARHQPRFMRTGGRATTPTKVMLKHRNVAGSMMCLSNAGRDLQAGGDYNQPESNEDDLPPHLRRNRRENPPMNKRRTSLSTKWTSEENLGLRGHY

[10] = biological target: T5, RNA-binding protein pos-1 (Caenorhabditis elegans, UniProt G5EF15); experiment: inhibitors of POS-1/mex-3 RNA binding, dose response, biochemical, fluorescence polarization (AID 1964);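 further: purified POS-1 fused to maltose binding protein made in E. coli; potency of compounds blocking POS-1 binding to fluorescent RNA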
T5 sequence (G5EF15 whole entry): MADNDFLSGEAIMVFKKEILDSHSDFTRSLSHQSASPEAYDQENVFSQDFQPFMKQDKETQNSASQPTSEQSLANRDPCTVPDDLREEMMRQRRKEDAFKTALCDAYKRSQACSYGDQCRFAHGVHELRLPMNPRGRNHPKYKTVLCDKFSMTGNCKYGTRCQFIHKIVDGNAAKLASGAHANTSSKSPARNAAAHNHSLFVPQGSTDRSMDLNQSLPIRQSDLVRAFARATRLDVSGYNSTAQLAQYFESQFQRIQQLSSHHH

[11] = biological target: Glyceraldehyde-3-phosphate dehydrogenase (Homo sapiens, UniProt P04406)
Chain of Glyceraldehyde-3-phosphate dehydrogenase (P04406 whole entry): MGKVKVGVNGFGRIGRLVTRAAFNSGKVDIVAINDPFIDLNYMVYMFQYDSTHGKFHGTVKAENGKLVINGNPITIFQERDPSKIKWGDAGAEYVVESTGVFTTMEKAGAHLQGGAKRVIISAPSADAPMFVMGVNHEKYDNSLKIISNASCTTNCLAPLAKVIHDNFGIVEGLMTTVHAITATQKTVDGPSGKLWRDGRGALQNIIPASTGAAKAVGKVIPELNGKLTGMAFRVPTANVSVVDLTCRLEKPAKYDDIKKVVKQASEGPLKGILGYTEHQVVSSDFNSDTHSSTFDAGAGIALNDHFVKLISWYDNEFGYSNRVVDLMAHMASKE

[12] = biological target: FAD-linked sulfhydryl oxidase ALR (Homo sapiens, UniProt P55789); experiment: inhibitors of human ALR sulfhydryl oxidase, dose response, biochemical, H2O2 detection, luminescence, cherry-pick (AID 493248)
Chain of FAD-linked sulfhydryl oxidase ALR (P55789 whole entry): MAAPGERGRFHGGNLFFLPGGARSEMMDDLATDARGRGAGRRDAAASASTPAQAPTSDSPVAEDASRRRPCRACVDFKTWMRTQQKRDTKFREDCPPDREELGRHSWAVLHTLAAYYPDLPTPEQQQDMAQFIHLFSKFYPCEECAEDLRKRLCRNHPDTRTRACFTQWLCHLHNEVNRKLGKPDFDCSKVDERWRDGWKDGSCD

cells [13] = format: functional
Genome polyprotein = Genome polyprotein (dengue virus type 2, UniProt P29990); experiment: Dengue-2 NS5 methyltransferase inhibitors, primary screen, biochemical, confirmation dose response (AID 588689); format: functional
Chain of Genome polyprotein (P29990 2492-3391 limits assumed): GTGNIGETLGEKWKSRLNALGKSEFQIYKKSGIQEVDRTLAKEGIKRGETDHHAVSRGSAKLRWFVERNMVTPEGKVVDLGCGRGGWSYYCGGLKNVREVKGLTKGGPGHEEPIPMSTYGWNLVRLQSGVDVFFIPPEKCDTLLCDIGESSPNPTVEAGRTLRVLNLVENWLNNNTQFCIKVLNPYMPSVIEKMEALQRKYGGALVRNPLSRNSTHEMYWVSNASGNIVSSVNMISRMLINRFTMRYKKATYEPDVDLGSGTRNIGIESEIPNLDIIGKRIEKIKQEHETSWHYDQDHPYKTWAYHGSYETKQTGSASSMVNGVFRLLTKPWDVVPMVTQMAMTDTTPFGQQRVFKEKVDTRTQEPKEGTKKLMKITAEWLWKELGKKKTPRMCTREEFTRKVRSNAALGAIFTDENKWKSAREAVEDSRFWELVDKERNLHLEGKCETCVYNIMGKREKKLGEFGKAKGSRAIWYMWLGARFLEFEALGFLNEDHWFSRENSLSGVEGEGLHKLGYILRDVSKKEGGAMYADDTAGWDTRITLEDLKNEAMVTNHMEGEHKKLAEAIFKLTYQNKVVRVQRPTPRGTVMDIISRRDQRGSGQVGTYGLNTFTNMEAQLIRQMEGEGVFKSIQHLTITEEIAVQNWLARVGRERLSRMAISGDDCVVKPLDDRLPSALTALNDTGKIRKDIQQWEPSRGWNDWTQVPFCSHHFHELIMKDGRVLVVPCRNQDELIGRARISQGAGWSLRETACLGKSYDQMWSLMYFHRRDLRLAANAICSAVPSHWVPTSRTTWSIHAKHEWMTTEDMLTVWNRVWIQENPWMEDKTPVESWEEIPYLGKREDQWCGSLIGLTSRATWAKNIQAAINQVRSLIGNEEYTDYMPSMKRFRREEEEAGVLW

[14] = biological target: Luciferin 4-monooxygenase (Photinus pyralis, UniProt P08659); experiment: firefly luciferase enzyme inhibitors, dose response, biochemical, luminescence (AID 1891)
Chain of Luciferin 4-monooxygenase (P08659 whole entry): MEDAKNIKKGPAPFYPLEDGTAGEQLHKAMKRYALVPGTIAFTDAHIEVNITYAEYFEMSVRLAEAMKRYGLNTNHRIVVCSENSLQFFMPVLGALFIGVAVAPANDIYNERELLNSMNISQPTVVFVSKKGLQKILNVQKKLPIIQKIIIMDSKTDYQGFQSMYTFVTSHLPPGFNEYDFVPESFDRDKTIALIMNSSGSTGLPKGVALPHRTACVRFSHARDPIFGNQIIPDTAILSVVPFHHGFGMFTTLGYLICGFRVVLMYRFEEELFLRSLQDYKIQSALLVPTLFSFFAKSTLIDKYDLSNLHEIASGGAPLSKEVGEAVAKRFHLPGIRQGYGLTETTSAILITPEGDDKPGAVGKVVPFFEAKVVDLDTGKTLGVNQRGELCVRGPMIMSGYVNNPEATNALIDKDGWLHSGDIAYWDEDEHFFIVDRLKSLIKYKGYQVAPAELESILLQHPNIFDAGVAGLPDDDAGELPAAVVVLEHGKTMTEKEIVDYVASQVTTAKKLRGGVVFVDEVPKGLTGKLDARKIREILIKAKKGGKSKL

[15] = Luminescence Cell-Based Dose Confirmation HTS to Identify Inhibitors of Platelet Dense Granule Release. [Related pubchem assays: 1663 (Primary HTS), 1678 (Summary of Project)]; format: functional
[16] = HEp-2 cell cytotoxicity, dose response, cytotoxicity control for RSV inhibitor project, HTS (AID 2410); format: functional; conditions: human respiratory syncytial virus
[17] = inhibitors of intracellular T. cruzi replication, confirmation, NIH3T3 host cells, beta-gal luminescence (AID 2044); format: functional, cell-based;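 further: intracellular parasites grown in NIH/3T3 mouse fibroblasts as host cells; luminescent beta-galactosidase reporter signal from transgenic T. cruzi replicating inside host cells; inhibitors lower the luminescence signal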
[18] = cytotoxicity toward NIH3T3 fibroblasts, dose response, counter-screen, cell-based, ATP luminescence, mouse fibroblasts (AID 2010); format: functional;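 further: cells exposed to compound for about 90 hours before reading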

SMILES: Nc1ccccc1SSc1ccccc1N
- IC50 [1]: 86.1 µM (active)
- IC50 [2]: 25.8 µM (active)

SMILES: C=C(C)CNC(=O)c1ccc2nc(Cc3ccc(OC)cc3)oc2c1
- EC50 (cells [3]): > 350 µM (not active)
- EC50 (cells [4]): 15.1 µM (active)

SMILES: COC(=O)Cc1sc(-c2ccccn2)nc1-c1ccccc1
- IC50 [2]: 41.1 µM (active)

SMILES: Cc1cc2ccccn2c1C(=O)c1ccc(NN)c([N+](=O)[O-])c1
- IC50 [5]: > 80 µM (inactive)

SMILES: COCCCNC(=O)COc1ccc(-c2nccc(-c3ccccn3)n2)cc1
- IC50 [5]: > 80 µM (inactive)

SMILES: CCC1CCc2sc(C(=O)O)cc2C1 (centres undefined)
- EC50 (cells [3]): > 350 µM (not active)
- EC50 (cells [4]): > 350 µM (not active)

SMILES: CN(C)S(=O)(=O)c1ccc(NC(=O)N2CCN(c3ccccc3)CC2)cc1
- IC50 [5]: > 80 µM (inactive)

SMILES: O=C1NC(=O)N(Cc2ccccc2Cl)C(=O)/C1=C/c1cccs1
- AC50 [6]: 29.7 µM (active)

SMILES: Cc1cc(O)nc2c(C)cc(S(=O)(=O)N3CCCCC3)cc12
- IC50 [5]: > 80 µM (inactive)

SMILES: C[C@@H]1O[C@@H](OC2C(O)C(OCCc3ccc(O)c(O)c3)OC(CO)C2OC(=O)/C=C/c2ccc(O)c(O)c2)[C@H](O)[C@H](O)[C@H]1O (some centres undefined)
- IC50 (Large T antigen): 3.26 µM (active)

SMILES: O=C(CCCCl)NC1=NN(c2ccccc2)C(=O)C1
- IC50 (Large T antigen): 30.9 µM (active)

SMILES: CCN(CC)S(=O)(=O)c1ccc(C(=O)/C=C/c2ccc(-c3ccc([N+](=O)[O-])cc3)o2)cc1
- EC50 [7]: > 99 µM (inactive)
- EC50 [8]: > 99 µM (inactive)

SMILES: COc1ccc2c(C)cc3n[nH]c(=S)n3c2c1
- IC50 [1]: 20.6 µM (active)
- IC50 [2]: > 100 µM (inactive)

SMILES: CC1(C)O[C@@H]2[C@H](O1)[C@@H](COS(=O)(=O)O)O[C@H]2n1c(S)nc2c(O)nc(N)nc21
- IC50 [1]: 53.7 µM (active)
- IC50 [2]: 34.8 µM (active)

SMILES: COCCN1C(=O)/C(=C/c2c(OC)cc(OC)cc2OC)C(=O)N(c2ccccc2)C1=O
- EC50 [9]: > 300 µM (not active)
- EC50 [10]: 131 µM (active)

SMILES: COCCCN=C(S)NN=C(S)Nc1ccc(F)cc1F
- IC50 [2]: 10.1 µM (active)

SMILES: COc1cccc(N2C(=O)C(Cl)=C(N3CCN(c4ccccc4)CC3)C2=O)c1
- IC50 [11]: > 50 µM (inconclusive)

SMILES: CCOC(=O)Cc1nn(CC)c(=O)c2ccccc12
- EC50 (cells [3]): > 350 µM (not active)
- EC50 (cells [4]): > 350 µM (not active)

SMILES: Cc1nnc2c3ccccc3c(-c3ccccc3)nn12
- IC50 [5]: > 80 µM (inactive)

SMILES: Nc1nnc(S)n1-c1ccc(Cl)cc1
- IC50 [2]: 23.7 µM (active)

SMILES: Cc1ccc(Sc2ccc(C=C3C(=O)N(C)C(=O)N(C)C3=O)o2)cc1
- AC50 [12]: 0.25 µM (active)
- IC50 (cells [13]): 21.4 µM (active)
- EC50 [9]: 25.5 µM (inconclusive)
- EC50 [10]: > 300 µM (not active)
- IC50 (Genome polyprotein): 14.5 µM (active)

SMILES: O=C(Nc1ccccc1)c1ccc(NCCc2ccccc2)c([N+](=O)[O-])c1
- EC50 [7]: 84.3 µM (inactive)
- EC50 [8]: > 99 µM (inactive)

SMILES: CC(C)c1nnc(NC(=O)CCC(=O)NC2CC2)s1
- EC50 [14]: > 112 µM (not active)
- EC50 (cells [3]): > 350 µM (not active)
- EC50 (cells [4]): > 350 µM (not active)
- EC50 [15]: > 112 µM (not active)

SMILES: FC(F)(F)c1ccc(CSc2ccccn2)cc1
- EC50 (cells [3]): > 350 µM (not active)
- EC50 (cells [4]): 70 µM (active)

SMILES: CCn1c(CN2CCN(c3ccc(Cl)cc3)CC2)nc2ccccc21
- IC50 [5]: > 80 µM (inactive)

SMILES: CN1CCN(c2ccc(NC(=O)c3ccc([N+](=O)[O-])o3)cc2Cl)CC1
- AC50 [6]: 9.02 µM (active)

SMILES: CC1=CC2=C(C=O)C(=O)C(C)(O)C(O)C2=CO1 (centres undefined)
- EC50 [7]: > 99 µM (inactive)
- EC50 [8]: > 99 µM (inactive)

SMILES: CCOC(=O)/C(C#N)=N\Nc1cc(Cl)ccc1OC
- EC50 [7]: 44.1 µM (inactive)
- EC50 [8]: > 99 µM (inactive)

SMILES: O=[N+]([O-])c1ccc(N/N=C/c2ccccc2)c(F)c1
- EC50 [7]: 27.2 µM (inactive)
- CC50 [16]: > 50 µM (active)
- EC50 [8]: > 99 µM (inactive)

SMILES: COc1cc(/C=c2\sc3n(c2=O)CCCN=3)ccc1O
- AC50 [12]: 4.19 µM (active)
- IC50 [1]: 15.6 µM (active)
- IC50 (Large T antigen): 16.2 µM (active)

SMILES: COc1cc(/C=N/NC(=O)c2ccccc2)ccc1O
- IC50 [1]: 29.9 µM (active)
- IC50 (Large T antigen): 10.5 µM (active)

SMILES: NS(=O)(=O)c1ccc(N/N=C/c2ccc[nH]2)c([N+](=O)[O-])c1
- IC50 (Large T antigen): 65.5 µM (active)

SMILES: COc1cc(/C=N/Nc2nc(Nc3ccccc3)nc(N3CCOCC3)n2)ccc1OC(=O)c1ccco1
- EC50 [17]: 0.895 µM (active)
- EC50 [18]: 6.73 µM (active)
- IC50 [5]: > 80 µM (inactive)
